Laboratory results from US20130164792A1, “METHOD FOR PRODUCING CRYSTALS OF MUTIVALENT METAL SALT OF (2R, 4R) MONATIN” (Ajinomoto Co., Inc., priority 2011, published 2013).

Assays:
[1] = Patent Literature 1; cited from earlier work
[2] = Measurement of solubility of Monatin metal salt in water; format: physicochemical; conditions: 1 g salt added to 1 g water, stirred at 25° C., filtrate analyzed by HPLC
Procedure: Solubility of a (2S,4R)Monatin potassium salt and a (2R,4R)Monatin potassium salt in water (H2O) was measured. 1 g of the (2S,4R)Monatin potassium salt or 1 g of the (2R,4R)Monatin potassium salt was added to 1 g of the water, the mixture was stirred at 25° C., a slurry was filtrated out, and the resulting filtrate was analyzed by HPLC. […] The solubility of the (2R,4R)Monatin potassium salt was higher than the solubility of the (2S,4R)Monatin potassium salt.
Then, Solubility of a (2S,4R)Monatin magnesium salt and a (2R,4R)Monatin magnesium salt in the water was measured. The solubility was measured in the same manner as above. For the (2S,4R)Monatin magnesium salt, firstly, the same amount of magnesium chloride was added to the (2S, 4R)Monatin potassium salt, and then ethanol was further added thereto. Then, the resulting slurry was filtrated and the wet crystal was dried under reduced pressure to prepare the (2S,4R)Monatin magnesium salt. For the (2R, 4R)Monatin magnesium salt, firstly, the same amount of magnesium chloride was added to the (2R,4R)Monatin potassium salt, and then methanol was further added thereto. Then, the resulting slurry was filtrated and the wet crystal was dried under reduced pressure to prepare the (2R, 4R)Monatin magnesium salt.

[3] = Isomerization reaction using (2S,4R)Monatin or (2R,4R)Monatin as substrate with purified racemase; format: biochemical; conditions: 50 μM PLP, 100 mM Tris-HCl (pH 8.0), 0.72 mg/mL enzyme, 25° C., 15 minutes, 1 U = 1 μmol Monatin isomerized per minute
Procedure: A reaction was carried out for 15 minutes using the purified racemase under the following condition. The reaction was carried out in 0.1 mL using an Eppendorf tube. After the reaction was terminated, an equal amount of a reaction stopping solution, 200 mM sodium citrate solution (pH 4.5) was added to the sample. HPLC was used for the analysis.
Reaction condition: 20 mM (2S,4R)Monatin or (2R,4R)Monatin, 50 μM PLP, 100 mM Tris-HCl (pH 8.0), 0.72 mg/mL racemase purified enzyme, 25° C., 120 rpm.
The (2S,4R)Monatin and the (2R,4R)Monatin were quantified by HPLC analysis. An analysis condition is as shown below.
Mobile phase: 20 mM KH2PO4/acetonitrile=100/5 Flow rate: 1.0 mL/minute Column temperature: 40° C.

solubility in water [2] [% by weight] | Molecule | other results
37.8 | N[C@H](C[C@](O)(Cc1c[nH]c2ccccc12)C(=O)O)C(=O)[O-].[K+] [(2R,4R)Monatin potassium salt] | –
14.5 | N[C@@H](C[C@](O)(Cc1c[nH]c2ccccc12)C(=O)O)C(=O)[O-].N[C@@H](C[C@](O)(Cc1c[nH]c2ccccc12)C(=O)O)C(=O)[O-].[Mg+2] [(2S,4R)Monatin magnesium salt] | –
20.1 | N[C@@H](C[C@](O)(Cc1c[nH]c2ccccc12)C(=O)O)C(=O)[O-].[K+] [(2S,4R)Monatin potassium salt] | –

Second part, the molecule before the results:

Molecule | solubility in water [2] [% by weight] | other results
N[C@@H](C[C@@](O)(Cc1c[nH]c2ccccc12)C(=O)O)C(=O)O (single isomer, unassigned) [(2S,4S) isomer of 4-hydroxy-4-(3-indolylmethyl)-2-aminoglutaric acid] | – | sweetness compared with sucrose [1]: several hundreds times sweeter than sucrose
N[C@H](C[C@](O)(Cc1c[nH]c2ccccc12)C(=O)O)C(=O)[O-].N[C@H](C[C@](O)(Cc1c[nH]c2ccccc12)C(=O)O)C(=O)[O-].[Mg+2] [(2R,4R)Monatin magnesium salt] | 1.6 | –
Rac39: racemase (SEQ ID NO:2) with C-terminal His tag, expressed in E. coli, converts (2S,4R)Monatin into (2R,4R)Monatin (protein, C-terminal His tag; Obtained from environmental sample) MAETNLHKKINIEMHFDNLVSNFEKIRKLNNENVDVADKVIPVVKANAYNFGVYDITKTFLSMKEPQTKFFVFSLEEGIELRKFFPSIERIFVIMGALENDAELFKKYNLTPVVNSFYQLEVCKKHNIKNIVLQFNTGMNRNGFEVKELRKVKQICDSEKFNVLMVMSHFACSDNMASEVNAYQINEYKKVARVFNDKKIIKSFPATFGILNFNTINGLVNSFRPGRLYYGFLPKEGYDKNLFSVYVYLSKDKEGNIILPFGKEDGIDYGEQAYILVDKNKAYVKQVDSHKVILDTNDKTLVGKKVYLIKNGMGYDEFKEQSKQDLLTFFGKIFKNCDKNKNLCNINATRKRAKKDNKFVPKAIFKKDAKGQYTQYTTTLFEKREVSADGIVGYDATRAVKKGDKLGVIFNGHMDGFYQPMSNKHVFVYVKNKYKQLIPCEFYGLISSDQAVIKIPNDEFDNIEYGAKVVVFDKNHPITLFEQATGVSRDELFYGLDKTYRIAEQK | – | activity to form the (2S,4R)Monatin from the (2R,4R)Monatin ([3]; 20 mM (2R,4R)Monatin): 0.09 U/mg; activity to form the (2R,4R)Monatin from the (2S,4R)Monatin ([3]; 20 mM (2S,4R)Monatin): 0.14 U/mg
